Experimental data reported in US8338420B1, “Treatment of Parkinson's disease and enhancement of dopamine signal using PDE 10 inhibitor” (Mitsubishi Tanabe Pharma Corporation, priority 2002, dated 2012).

Tests used:
Type in all cases: in vivo
marmoset MPTP model [1] = assay: Marmoset MPTP model, effect on bromocriptine efficacy; conditions: together with bromocriptine (0.3 mg/kg), versus vehicle with bromocriptine
Description: Using bromocriptine (bromocriptine mesilate) as a dopamine receptor agonist, effect of test compound on pharmaceutical effects caused by administration of dopamine receptor agonist, in marmoset MPTP model was tested as follows.
The same method was employed as in Example 6, except for using bromocriptine (bromocriptine mesilate) in place of L-dopa and benserazide.
Each test was performed with respect to the same individual sequentially, and intervals of 5 days or more were allowed between the tests. • test 1: vehicle • test 2: vehicle and bromocriptine mesilate • test 3: test compound (PDE10 inhibitor) and bromocriptine mesilate
[…] Further, as test compounds, compounds confirmed with PDE10 inhibitory activities were administered via saphenous vein, 90 minutes before administration of bromocriptine mesilate, under anesthesia by ketamine and isoflurane (In test 1 and test 2, only vehicle was administered in place of the test compound in the same manner).
Bromocriptine mesilate was suspended in 0.5% methylcellulose solution on the day of administration and used. Test compound (PDE10 inhibitor) was dissolved in a solvent 30 minutes before administration and used.
After administration of test compound (PDE10 inhibitor) (or vehicle) and bromocriptine mesilate, locomotor activity and motor disability score were evaluated for each individual, in the same manner as in Example 6. […]

[2] = Brain uptake (integration plot method, PS) and PDE10 binding occupancy in the brain; conditions: rat, 1 mg/kg, i.v.
Description: Different from other tissue, the brain has the blood brain barrier (BBB) to restrict and regulate the movement of molecules between the blood and the brain. BBB consists of brain capillary endothelial cells. The brain capillary endothelial cells are connected through tight junction, and nutrients and drugs in the blood are required to pass transcellularly through the brain capillary endothelial cells. As a mechanism for the drugs to pass through the BBB, there are mentioned the following five routes; 1) passive diffusion, 2) carrier-mediated transport, 3) receptor-mediated transcytosis, 4) absorptive-mediated transcytosis and 5) active efflux transport by P-glycoprotein. The rate of the compound to pass through the BBB and enter the brain (PS) via one or plurals of these mechanisms can be measured by known in vivo experimental assays such as in situ brain perfusion, integration plot method, etc., or by the known in vitro experimental assays such as primary cultured brain capillary endothelial cells, or an established immortalized brain capillary endothelial cell line, etc. […]
Further, Compound A (1 mg/kg, i.v.) was intravenously administered to rat, and according to integration plot method, a rate (PS) was measured for Compound A to enter the brain by passing through the blood brain barrier (BBB), and occupancy of PDE10 binding in the brain was analyzed.

marmoset MPTP model [3] = assay: Marmoset MPTP model, effect on L-dopa efficacy; conditions: 0.3 mg/kg or 1 mg/kg, i.v., together with L-dopa, versus vehicle with L-dopa
Description: Using marmoset MPTP models, effects of test compound on pharmaceutical efficacy of L-dopa administration were tested as follows.
About 16 weeks before carrying out the tests, marmosets were administered with MPTP (1-methyl-4-phenyl-1,2,3,6-tetrahydropyridine) (2.5 mg/kg, i.v.), according to the method described in the literature (Fukuzaki et al., Pharmacol. Biochem. Behav., vol. 67 No. 1, pp. 121-129, September 2000), to degenerate dopaminergic neurons in the brain, and individuals showing parkinsonian symptoms were used.
Using these marmosets (age 3-4 years, bodyweight 300-400 g), the following three kinds of tests were performed. […]
After administration of test compound (PDE10 inhibitor) (or vehicle) and L-dopa+benserazide, each individual was transferred to an activity cage equipped with four photo cell sensor units, and observation was continued for 6 hours at longest. For each individual, locomotor activity and motor disability score were evaluated in every 10-minute interval.
Motor disability was assessed according to the following 7 evaluation items, and total score of the 7 items were regarded as the motor disability score. […]

COc1ccc(-c2cc(N3CCCC3)nc(/C=C/c3nc(-n4ccnc4)c4ccccc4n3)n2)cc1OC [Compound A, 2-{(E)-2-[4-(1-imidazolyl)-quinazolin-2-yl]}ethenyl-4-(3,4-dimethoxy)phenyl-6-(pyrrolidin-1-yl)pyrimidine]
effects of bromocriptine to alleviate symptoms (locomotor activity and motor disability score) (marmoset MPTP model [1]): had a tendency to enhance the effects of bromocriptine to alleviate symptoms | occupancy of PDE10 binding in the brain [2]: excellent PDE10 binding behaviors inside the brain | brain uptake and penetration (rate PS through the BBB) ([2]; integration plot method): good brain uptake and penetration characteristics | effects of L-dopa to alleviate symptoms (locomotor activity and motor disability score) (marmoset MPTP model [3]): enhanced and/or prolonged duration of effects of L-dopa to alleviate symptoms
